Entries after “also recorded” stand apart in the source; their conditions may differ. Read-outs that look alike come from different tables or passages of the source.
Legend:
[1] = polymorph; cited from earlier work
[2] = oral administration; cited from earlier work
[3] = tested on: peripheral blood mononuclear cells (PBMCs) from adult male lupus patients; details: pre-incubation with DHEA, concanavalin A stimulated PBMCs; cited from earlier work
[4] = tested on: human marrow and mononuclear cells; details: in vitro; cited from earlier work
[5] = tested on: patients with mild to moderate SLE; details: cited from earlier work
[6] = tested on: NZB/NZW mouse model of SLE; details: cited from earlier work
Th2 cells = Th2 cells stimulated by retrovirus infection; cited from earlier work
IL-1β = assay: Serum IL-1β by ELISA in the same SLE study; assay type: in vivo, human; details: after 24 weeks of 200 mg/day DHEA orally, mean ± SD, n = 15, before treatment 9.94 ± 8.92
Procedure: (§1) Baseline prednisone (less than 10 mg/day) and other concomitant SLE medications were held constant. The serum levels of cytokines including IL-1, IL-2, interferon-γ, IL-4, and IL-10 were determined by ELISA. The mean change from baseline to 24 weeks of therapy was analyzed. See, below.
(§2) See, Chang et al., Arthritis Rheum., 2002, 46(11):2924-27. The subjects enrolled in the study were adult women with SLE according to American College of Rheumatology (ACR) criteria (see, e.g., Tan, et al., Arthritis Rheum., 1982, 25:1271-7) and who were receiving a prednisone dose (or its corticosteroid equivalent) of 1 to 10 mg/day at the time they entered the study. […]
(§3) Serum testosterone, estradiol and cytokine profiles were measured at baseline and at last visit (i.e., after 24 weeks). Different serum cytokines including […], IL-2, IFN-γ, IL-4, and […] in the subjects were measured using ELISA kits (R&D, Minneapolis, Minn.) according to the manufacturer's instructions.
(§4) Comparisons between groups were done through an independent t-test, while comparisons within groups were done through a paired t-test. All statistical tests were evaluated at a 0.05 level of significance.

IL-10 = assay: Serum IL-10 by ELISA in randomized, double-blind, placebo-controlled study in women with active SLE; assay type: in vivo, human
Procedure: as §1, §2, §3, §4

estradiol = assay: Hormone determination: serum estradiol in SLE study; assay type: in vivo, human; details: 200 mg/day DHEA, 24 weeks
Procedure: See, Chang et al., Arthritis Rheum., 2002, 46(11):2924-27. The subjects enrolled in the study were adult women with SLE according to American College of Rheumatology (ACR) criteria (see, e.g., Tan, et al., Arthritis Rheum., 1982, 25:1271-7) and who were receiving a prednisone dose (or its corticosteroid equivalent) of 1 to 10 mg/day at the time they entered the study. Subjects selected for the study had to have active SLE, as defined by a Systemic Lupus Activity Measure (SLAM) score of ≧7, see, e.g., Liang, et al., Arthritis Rheum., 1989, 32:1107-18, and a baseline Systemic Lupus Erythematosus Disease Activity Index (SLEDAI) score ≧2. See, Bombardier, et al., Arthritis Rheum., 1992, 35:630-40.
Subjects that were under treatment with dydroxychloroquine, azathioprine, methotrexate, or cyclophosphamide or a combination thereof, had to have been on a stable regimen with no change in dose and drug combination for at least 6 weeks prior to entry into the study. Subjects who were receiving androgens, immunoglobulins, cyclosporine A, or other immunosuppressive agents (except those noted) were excluded from the study.
as §3

[7] = 200 mg/day for 12 months, 381 women with mild/moderate SLE
[8] = oral daily doses of 200 mg, mild to moderate SLE, van Vollenhoven et al.

Which Stability [1] does the source give for `C[C@]12CC[C@H](O)CC1=CC[C@@H]1[C@@H]2CC[C@]2(C)C(=O)CC[C@@H]12` [DHEA form I, dehydroepiandrosterone] here?
Its Stability is “highly stable”.

For `C[C@]12CC[C@H](O)CC1=CC[C@@H]1[C@@H]2CC[C@]2(C)C(=O)CC[C@@H]12` [DHEA form II, dehydroepiandrosterone], which Stability [1] is on record?
Its Stability is “stable under typical ambient conditions”.

And the Rate of absorption [2]?
Its Rate of absorption is “rapid rate of absorption (greater than the form I polymorph)”.

For `C[C@]12CC[C@H](O)CC1=CC[C@@H]1[C@@H]2CC[C@]2(C)C(=O)CC[C@@H]12` [DHEA, dehydroepiandrosterone], which IL-4 production [3] is on record?
Its IL-4 production is “reduced the IL-4 production”.

What about the “Secretion of IL-6” value [4] of the same molecule?
Its value is “reduce secretion of IL-6”.

And the Bone mineral density [5, 7]?
The Bone mineral density was “prevented loss of bone mineral density in a significantly greater proportion of patients than placebo”.

And the “SLE disease and symptoms” value [5, 7]?
The value was “improved or stabilized SLE disease and its symptoms without clinical deterioration”.

What about the Prednisone reduction ([5]; 200 mg/day, women with active lupus, phase II/III, Petri et al. 2002) of the same molecule?
The Prednisone reduction was “enabled prednisone reduction to physiologic levels in a significantly greater proportion of patients than placebo”.

What about the “Steroid-sparing effect and flares” value [5, 8] of the same molecule?
Its value is “may have steroid-sparing effects and reduce flares”.

What about the Tolerability [5, 8] of the same molecule?
Its Tolerability is “well-tolerated”.

And the Tolerability ([5]; women with lupus, Chang et al. 2002)?
The Tolerability was “well-tolerated”.

What about the “Onset of disease and mortality” value [6] of the same molecule?
Its value is “significantly delayed onset of disease and a reduction in mortality”.

And the “Production of IL-6 and tumor necrosis factor alpha” value (Th2 cells)?
Its value is “suppressed the production of cytokines IL-6 and tumor necrosis factor alpha”.

And the IL-1β after treatment (IL-1β)?
The IL-1β after treatment was 9.20 ± 6.49 pg/mL.

What about the “Effect on IL-10 level (in words)” value (IL-10; 200 mg/day DHEA for 24 weeks, women with SLE, from baseline) of the same molecule?
The value was “significant reduction; also recorded: significant IL-10 suppression”.

What about the IL-10 after treatment (IL-10; serum, last visit after 24 weeks of 200 mg/day DHEA orally, mean ± SD, n = 15, before treatment 9.21 ± 6.75, p=0.045 vs placebo, p=0.029 vs baseline) of the same molecule?
Its IL-10 after treatment is 1.89 ± 1.47 pg/mL.

And the “Estradiol change at last visit, mean” value (estradiol; baseline mean 123)?
The value was -48 pg/mL.

What about the “Estradiol change at last visit, median” value (estradiol; baseline median 104) of the same molecule?
Its value is -39 pg/mL.

What about the “Median decrease in estradiol” value (estradiol; placebo 31.5) of the same molecule?
The value was 39.3 pg/mL.

Reference: patent publication US20050014734A1 (Genovate Biotechnology Co., Ltd., priority 2003, published 2005)
